# Assay results as given in DBAASP.
# Key:
# Experiment in all cases: ≥ marks a high value that may be exact or a test limit, other limits are often not marked, values filed in µg/mL are converted to µM
# [1] = system: Klebsiella aerogenes ATCC 13048
# [2] = system: Klebsiella pneumoniae ATCC 700603
# [3] = system: Lacticaseibacillus casei ATCC 334
# [4] = system: Listeria monocytogenes ATCC 7611
# [5] = system: Micrococcus luteus ATCC 14452
# [6] = system: Saccharomyces cerevisiae ATCC 204508
# [7] = system: Staphylococcus aureus ATCC 29213
# Escherichia coli 078 = system: Escherichia coli 078
# [8] = system: Escherichia coli ATCC 25922
# Escherichia coli UB1005 = system: Escherichia coli UB1005
# [9] = system: Lacticaseibacillus rhamnosus 7469
# [10] = system: Pseudomonas aeruginosa ATCC 27853
# [11] = system: Salmonella enterica subsp. enterica serovar Pullorum ATCC 7913
# [12] = system: Salmonella enterica subsp. enterica serovar Typhimurium ATCC 14028
# [13] = system: Salmonella enterica subsp. enterica serovar Typhimurium C77-31
# [14] = system: Staphylococcus aureus ATCC 25923
# [15] = system: Staphylococcus epidermidis ATCC 12228
# [16] = system: Streptococcus agalactiae CICC 10465
# Streptococcus agalactiae = system: Streptococcus agalactiae
# [17] = system: Streptococcus thermophilus YM-C
# [18] = system: Acinetobacter baumannii ATCC 19606
# [19] = system: Candida albicans ATCC 90028
# [20] = system: Cryptococcus neoformans ATCC 208821
# [21] = system: Staphylococcus aureus ATCC 43300
# [22] = system: Staphylococcus aureus SH1000
# Escherichia coli TOP 10 = system: Escherichia coli TOP 10
# [23] = system: Candida albicans ATCC 14053
# [24] = system: Candida glabrata ATCC 2001
# Candida krusei ATCC 6258 = system: Candida krusei ATCC 6258
# [25] = system: Candida parapsilosis ATCC 22019
# Escherichia coli = system: Escherichia coli
# [26] = system: Staphylococcus aureus ATCC BAA-1683
# [27] = system: Salmonella enterica subsp. enterica serovar Enteritidis
# Salmonella sp. = system: Salmonella sp.
# Yersinia enterocolitica = system: Yersinia enterocolitica
# [28] = system: Candida albicans FRR 5580
# [29] = system: Pseudomonas aeruginosa ATCC 9027
# [30] = system: Bifidobacterium longum subsp. infantis
# Staphylococcus aureus = system: Staphylococcus aureus
smiles,measurement,setting,value
CC[C@H](C)[C@H](NC(=O)[C@H](CC(C)C)NC(=O)[C@H](C)NC(=O)[C@H](Cc1ccccc1)NC(=O)[C@H](C)N)C(=O)N[C@@H](C)C(=O)NCC(=O)N[C@@H](C)C(=O)N[C@@H](CC(C)C)C(=O)N[C@@H](Cc1ccc(O)cc1)C(=O)N[C@@H](CCCN=C(N)N)C(=O)N[C@H](C(=O)N[C@@H](Cc1ccccc1)C(=O)N[C@@H](Cc1cnc[nH]1)C(=O)N[C@@H](CCCN=C(N)N)C(=O)N[C@@H](CCCN=C(N)N)C(=O)O)[C@@H](C)CC [AFALIAGALYRIFHRR],MIC,[1],≥ 256 µM
same,MIC,[2],> 256 µM
same,MIC,[3],≥ 256 µM
same,MIC,[4],8 µM
same,MIC,[5],7.5 µM
same,MIC,[6],≥ 32 µM
same,MIC,[7],3.5 µM
CC[C@H](C)[C@H](NC(=O)[C@H](CC(C)C)NC(=O)[C@@H](NC(=O)[C@@H](N)CC(=O)O)[C@@H](C)CC)C(=O)N[C@H](C(=O)N[C@H](C(=O)NCC(=O)NCC(=O)N[C@@H](CCCCN)C(=O)N[C@@H](CCC(=O)O)C(=O)N[C@@H](CCCN=C(N)N)C(=O)N[C@@H](CCCCN)C(=O)N[C@@H](CCCCN)C(=O)N[C@@H](CCCN=C(N)N)C(=O)N[C@@H](CCCN=C(N)N)C(=O)N[C@@H](CCCN=C(N)N)C(N)=O)C(C)C)[C@@H](C)CC [DILIIVGGKERKKRRR],MIC,Escherichia coli 078,≥ 64 µM
same,MIC,[8],> 64 µM
same,MIC,Escherichia coli UB1005,≥ 64 µM
same,MIC,[9],≥ 64 µM
same,MIC,[10],> 64 µM
same,MIC,[11],≥ 64 µM
same,MIC,[12],> 64 µM
same,MIC,[13],≥ 64 µM
same,MIC,[14],> 64 µM
same,MIC,[7],> 64 µM
same,MIC,[15],> 64 µM
same,MIC,[16],4 µM
same,MIC,Streptococcus agalactiae,4 µM
same,MIC,[17],≥ 64 µM
CC[C@H](C)[C@H](NC(=O)[C@H](CC(=O)O)NC(=O)[C@H](Cc1ccccc1)NC(=O)[C@H](CC(C)C)NC(=O)CN)C(=O)N[C@H](C(=O)N[C@@H](CCCCN)C(=O)N[C@@H](CCCCN)C(=O)N[C@H](C(=O)N[C@H](C(=O)N[C@@H](CCCCN)C(=O)N[C@@H](CC(C)C)C(=O)N[C@@H](CC(C)C)C(=O)N[C@@H](CCCCN)C(N)=O)C(C)C)C(C)C)C(C)C [GLFDIVKKVVKLLK],MIC,[18],> 20 µM
same,MIC,[19],20 µM
same,MIC,[20],20 µM
same,MIC,[8],> 20 µM
same,MIC,[2],> 20 µM
same,MIC,[10],> 20 µM
same,MIC,[21],> 20 µM
same,MIC,[22],≥ 50 µM
CC[C@H](C)[C@H](NC(=O)[C@H](CCCCN)NC(=O)[C@H](CO)NC(=O)[C@H](Cc1ccccc1)NC(=O)[C@H](CC(C)C)NC(=O)[C@H](CCCCN)NC(=O)[C@H](CCCCN)NC(=O)[C@H](CC(C)C)NC(=O)CN)C(=O)N[C@@H](CCCCN)C(=O)N[C@H](C(=O)N[C@H](C(=O)NCC(=O)N[C@@H](CO)C(=O)N[C@@H](C)C(=O)N[C@@H](CC(C)C)C(=O)N[C@@H](CCCCN)C(=O)N[C@@H](CC(N)=O)C(=O)N[C@@H](CC(C)C)C(=O)N[C@@H](C)C(N)=O)[C@@H](C)CC)[C@@H](C)CC [GLKKLFSKIKIIGSALKNLA],MIC,Escherichia coli TOP 10,1.45 µM
CC[C@H](C)[C@H](N)C(=O)N[C@@H](CC(=O)O)C(=O)N[C@@H](Cc1c[nH]c2ccccc12)C(=O)N[C@@H](Cc1cnc[nH]1)C(=O)N[C@@H](Cc1cnc[nH]1)C(=O)N[C@@H](CC(C)C)C(=O)N[C@@H](CC(C)C)C(=O)N[C@@H](CC(=O)O)C(=O)N[C@@H](C)C(=O)N[C@@H](C)C(=O)N[C@@H](Cc1cnc[nH]1)C(=O)N[C@@H](CCC(N)=O)C(=O)N[C@H](C(=O)N[C@@H](CC(C)C)C(N)=O)[C@@H](C)CC [IDWHHLLDAAHQIL],MIC,[23],≥ 64 µM
same,MIC,[24],16 µM
same,MIC,Candida krusei ATCC 6258,≥ 32 µM
same,MIC,[25],≥ 64 µM
CC(C)C[C@H](NC(=O)[C@H](CC(C)C)NC(=O)[C@H](CC(C)C)NC(=O)[C@H](CC(C)C)NC(=O)[C@H](CCCCN)NC(=O)[C@H](CCCCN)NC(=O)[C@H](CCCCN)NC(=O)[C@@H](N)CCCCN)C(=O)N[C@@H](CCCN=C(N)N)C(=O)N[C@@H](CCCN=C(N)N)C(N)=O [KKKKLLLLRR],MIC,Escherichia coli,386 µM
same,MIC,[26],≥ 386 µM
CC[C@H](C)[C@H](NC(=O)[C@H](CCCN=C(N)N)NC(=O)[C@H](CCCN=C(N)N)NC(=O)[C@@H](NC(=O)[C@@H](NC(=O)[C@H](CCC(N)=O)NC(=O)[C@@H](N)CCCN=C(N)N)[C@@H](C)CC)[C@@H](C)CC)C(=O)N[C@@H](CCC(N)=O)C(=O)N[C@@H](CCCN=C(N)N)C(N)=O [RQIIRRIQR],MIC,[8],> 40.4 µM
same,MIC,Escherichia coli,> 40.4 µM
same,MIC,[27],≥ 40.4 µM
same,MIC,Salmonella sp.,≥ 40.4 µM
same,MIC,[7],> 40.4 µM
same,MIC,[21],> 40.4 µM
same,MIC,Yersinia enterocolitica,≥ 40.4 µM
NCCCC[C@H](NC(=O)[C@H](Cc1c[nH]c2ccccc12)NC(=O)[C@H](Cc1c[nH]c2ccccc12)NC(=O)[C@H](CCCCN)NC(=O)[C@H](Cc1c[nH]c2ccccc12)NC(=O)[C@H](Cc1c[nH]c2ccccc12)NC(=O)[C@@H](N)CCCN=C(N)N)C(N)=O [RWWKWWK],MIC,[28],≥ 54.5 µM
same,MIC,[29],27.2 µM
CC[C@H](C)[C@H](NC(=O)[C@H](CCC(N)=O)NC(=O)[C@H](C)NC(=O)[C@H](Cc1cnc[nH]1)NC(=O)[C@@H]1CCCN1C(=O)[C@H](CCCN=C(N)N)NC(=O)[C@@H](NC(=O)[C@@H](NC(=O)[C@H](C)NC(=O)[C@@H]1CCCN1C(=O)[C@H](CC(N)=O)NC(=O)[C@H](C)NC(=O)[C@@H](N)Cc1ccc(O)cc1)C(C)C)C(C)C)C(=O)N1CCC[C@H]1C(=O)N[C@@H](CCC(N)=O)C(=O)N[C@@H](CCCN=C(N)N)C(=O)O [YANPAVVRPHAQIPQR],MIC,[30],≥ 1650 µM
same,MIC,Escherichia coli,> 1650 µM
same,MIC,Staphylococcus aureus,> 1650 µM
